The text below walks through data of patent US20260176232A1, “PROBENECID COMPOUNDS FOR THE TREATMENT OF INFLAMMASOME-MEDIATED DERMATOLOGICAL CONDITIONS” (Bacainn Biotherapeutics, Ltd., priority 2022, published 2026).

In experiment [1] the test system is non-canonical inflammasome. Briefly: IL-1β secretion in macrophages challenged with LPS (B4) (FIG. 4C). Conditions: BT032 20, 100 μM; Pam3Cys priming; LPS 0111:B4 16 h. The experiment is classed as cell-based, human. The source says: (§1) In vitro stimulation of human macrophages.
The test system of a further experiment is AIM2 inflammasome. Kind of experiment: IL-1β secretion in macrophages challenged with poly dA:dT (FIG. 4C). The experiment is classed as cell-based, human. Conditions: BT032 20, 100 μM; 6 h.
Text: as §1

Experiment [2] relates to T1, ASC speck formation (inflammasome complex).
T1 construct: Flag; expressed in transfected cells; host or cells: NLRP3-deficient immortalized BMDMs
T1 sequence (Q96P20 whole entry, one chain of several): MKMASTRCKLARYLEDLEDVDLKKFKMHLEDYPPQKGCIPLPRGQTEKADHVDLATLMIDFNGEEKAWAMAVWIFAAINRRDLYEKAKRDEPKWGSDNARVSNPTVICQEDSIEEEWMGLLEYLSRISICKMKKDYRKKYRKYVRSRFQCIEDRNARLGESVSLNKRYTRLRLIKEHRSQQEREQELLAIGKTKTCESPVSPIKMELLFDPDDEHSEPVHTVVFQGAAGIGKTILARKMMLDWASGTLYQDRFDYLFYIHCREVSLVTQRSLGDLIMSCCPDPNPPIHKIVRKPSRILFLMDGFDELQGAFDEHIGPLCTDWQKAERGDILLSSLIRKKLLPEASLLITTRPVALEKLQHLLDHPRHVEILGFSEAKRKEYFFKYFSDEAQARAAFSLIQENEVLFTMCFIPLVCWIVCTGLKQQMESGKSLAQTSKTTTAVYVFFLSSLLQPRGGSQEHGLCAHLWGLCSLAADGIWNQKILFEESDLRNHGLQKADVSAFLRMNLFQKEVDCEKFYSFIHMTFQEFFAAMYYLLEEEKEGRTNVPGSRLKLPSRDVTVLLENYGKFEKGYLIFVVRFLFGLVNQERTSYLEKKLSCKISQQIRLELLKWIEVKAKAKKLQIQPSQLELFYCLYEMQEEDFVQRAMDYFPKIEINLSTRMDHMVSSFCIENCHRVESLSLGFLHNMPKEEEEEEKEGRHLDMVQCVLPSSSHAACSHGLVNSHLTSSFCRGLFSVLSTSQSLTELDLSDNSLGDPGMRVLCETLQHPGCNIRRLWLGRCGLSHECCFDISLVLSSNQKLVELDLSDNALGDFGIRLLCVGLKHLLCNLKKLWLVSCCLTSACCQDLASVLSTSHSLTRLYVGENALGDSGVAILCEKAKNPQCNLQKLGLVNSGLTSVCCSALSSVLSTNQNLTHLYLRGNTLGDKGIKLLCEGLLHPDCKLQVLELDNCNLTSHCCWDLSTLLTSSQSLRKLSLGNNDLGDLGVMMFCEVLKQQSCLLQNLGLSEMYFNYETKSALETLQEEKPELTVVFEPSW
Briefly: Nigericin-induced ASC speck formation in ASC-cerulean/NLRP3 macrophages. The experiment is classed as cell-based. Conditions: 350 μM, 60 mins before nigericin 3 μM 90 mins; about 20% of cells with nigericin alone. The protocol:
FIGS. 5B-5D are pictures showing the ability of probenecid analogs of the present technology (e.g., BT032) to inhibit the formation of the inflammasome complex following NLRP3 activation. NLRP3-deficient immortalized BMDMs reconstituted with ASC-cerulean (pseudocolor RED) and NLRP3-Flag were either not stimulated (FIG. 5B) or stimulated with NLRP3 agonist nigericin (3 μM) for 90 mins (FIG. 5C). ASC-cerulean macrophages were also pretreated with BT032 (350 μM) for 60 mins prior to nigericin challenge (FIG. 5D). Macrophages were fixed with 4% paraformaldehyde and imaged for the formation of inflammasome specks as identified by intense, punctate staining in the cytosol of cells. Cell nuclei were stained with DAP (4′,6′-diamindino-2-phenylindole; BLUE). Representative images shown are maximum intensity projections of 3D deconvoluted z stacks using ImageJ.
FIG. 5E is a chart showing the number of ASC specks detected per field (6-7 fields per sample) compared to the total number of cells/field as determined by staining nuclei. Data is represented as a percentage of ASC-specks per field of view for each treatment group as outlined in FIGS. 5B-5D.
Methods. […] ASC-cerulean specks were counted for each field and as percentage of specks per field and represented as a percentage of total Hoechst positive cells.

A further experiment has as its system Recombinant NLRP3. Kind of experiment: Photo-affinity labelling of recombinant NLRP3, anti-PEG immunoblot (FIG. 9C). The experiment is classed as binding. The settings on record: inferred from photo-affinity probes ADS165, ADS167. (In general: A western blot detects proteins with antibodies after separation by electrophoresis.)
For experiment [3], the system named is lesional skin from patients with psoriasis. Briefly: Psoriasis-related gene expression in psoriatic lesion biopsy specimens ex vivo. The experiment is classed as cell-based, human. The settings on record: 500 ng/mL, 12 hours. The protocol:
Human samples. Biopsy specimens of psoriatic lesions are obtained from about 10 patients after obtaining informed consent. Two adjacent biopsy specimens are taken from each patient. All specimens are cut at the upper dermis, and the epidermal side is used for the experiment. As a medium, HuMedia-KB2 (Kurabo) containing insulin, human epidermal growth factor, bovine pituitary extract, and gentamicin/amphotericin B is used, according to the manufacturer's protocol. One specimen is cultured with vehicle (DMSO), and the adjacent one was cultured with BT032 (500 ng/mL) for 12 hours.
RNA isolation and the quantitative RT-PCR analysis. Total RNA is isolated using Trizol (Invitrogen, Carlsbad, CA) or RNeasy kits (Qiagen, PL Venlo, Netherlands) according to the manufacturer's protocol. Complementary DNA is reverse transcribed using a Prime Script RT reagent kit (Takara Bio, Shiga, Japan). The quantitative RT-PCR is performed by monitoring the synthesis of double-stranded DNA during the various PCR cycles with SYBR Green I (Roche, Basel, Switzerland) and the LightCycler real-time PCR apparatus (Roche), according to the manufacturer's instructions. All primers are obtained from Greiner Japan (Tokyo, Japan).

For experiment [4], the target named is T2, NLRP3 inflammasome (Mus musculus, UniProt Q8R4B8). Briefly: IL-1β secretion in macrophages challenged with nigericin, MSU or silica (FIG. 4C). The settings on record: BT032 20, 100 μM; MCC950 5 μM; secreted IL-1β.
T2 sequence (Q8R4B8 whole entry): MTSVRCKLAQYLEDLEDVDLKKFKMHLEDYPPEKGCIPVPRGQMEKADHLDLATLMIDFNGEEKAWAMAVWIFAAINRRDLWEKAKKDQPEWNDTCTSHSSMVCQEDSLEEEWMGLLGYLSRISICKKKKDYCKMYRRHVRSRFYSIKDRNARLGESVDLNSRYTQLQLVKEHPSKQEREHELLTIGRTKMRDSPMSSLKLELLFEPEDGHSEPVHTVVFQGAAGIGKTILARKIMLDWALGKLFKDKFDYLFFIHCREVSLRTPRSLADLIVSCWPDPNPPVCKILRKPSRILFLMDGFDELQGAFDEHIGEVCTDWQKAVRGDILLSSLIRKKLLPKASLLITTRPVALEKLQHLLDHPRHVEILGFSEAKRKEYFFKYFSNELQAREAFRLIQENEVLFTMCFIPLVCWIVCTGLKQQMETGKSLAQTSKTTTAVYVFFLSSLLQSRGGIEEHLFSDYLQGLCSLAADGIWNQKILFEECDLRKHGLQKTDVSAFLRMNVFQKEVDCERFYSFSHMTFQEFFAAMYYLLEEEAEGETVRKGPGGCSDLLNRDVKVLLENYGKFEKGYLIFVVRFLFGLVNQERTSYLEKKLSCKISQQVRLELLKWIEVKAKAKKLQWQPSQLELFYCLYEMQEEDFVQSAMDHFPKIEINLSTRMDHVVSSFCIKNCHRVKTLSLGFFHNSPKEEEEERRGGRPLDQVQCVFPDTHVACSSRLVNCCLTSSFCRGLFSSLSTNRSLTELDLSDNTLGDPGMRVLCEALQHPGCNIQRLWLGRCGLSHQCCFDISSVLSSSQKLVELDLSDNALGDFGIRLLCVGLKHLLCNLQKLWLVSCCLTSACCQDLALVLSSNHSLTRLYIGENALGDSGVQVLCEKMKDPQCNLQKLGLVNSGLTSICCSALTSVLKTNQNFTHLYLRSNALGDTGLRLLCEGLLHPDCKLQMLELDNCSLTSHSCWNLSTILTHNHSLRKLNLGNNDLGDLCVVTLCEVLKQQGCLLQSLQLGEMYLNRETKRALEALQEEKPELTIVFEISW
In experiment [5] the target is T2, NLRP3 inflammasome. Briefly: IL-1β secretion (ELISA) in LPS-primed iBMDMs stimulated with silica or nigericin. The experiment is classed as cell-based, murine (C57BL/6). Details: endogenous in cells; host or cells: immortalized wild-type C57BL/6 bone-marrow derived macrophages (iBMDMs), LPS-primed. Conditions: compared with probenecid in DMSO or PBS. The protocol:
In vitro stimulation of murine macrophages. Immortalized wild-type C57BL/6 bone-marrow derived macrophages (iBMDMs) were grown in DMEM supplemented with 10% heat inactivated FBS and 2 mM glutamine. iBMDMs were seeded in 96-well plates 24 hours prior incubation with lipopolysaccharide (LPS; 100 ng/mL) for 3 hours. Cells were then incubated with a control probenecid compound (probenecid dissolved in DMSO (Prob/D), probenecid dissolved in PBS (Prob/P)) or one of the probenecid analogs of the present technology (BT032, BT132, BT133, BT134, BT135, BT136, BT137, BT138, BT139, or BT140) at concentrations of 300 μM, 150 μM, 30 μM, or 3 μM 1 hour prior to stimulation with NLRP3 inflammasome activators, silica ([…]) or nigericin (6 μM). After an additional 6 hours, cell supernatants were collected and levels of IL-1β were quantified by ELISA. These experiments were run in triplicate three times.
(ELISA stands for enzyme-linked immunosorbent assay.)

In the case of `CCCN(CCC)S(=O)(=O)c1ccc(-c2ccc(CCCC(=O)O)cc2)cc1` [BT032, 4-(4′-(N,N-dipropylsulfamoyl)-[1,1′-biphenyl]-4-yl)butanoic acid], the “non-canonical inflammasome activity (LPS (B4))” value in experiment [1] is recorded as “limited impact”. The “AIM2 (poly dA:dT)-mediated inflammasome activation” value in the experiment with AIM2 inflammasome is “no effect”. In addition, in experiment [2], the “ASC specks in cells” value is “substantially reduced ASC specks”. For the same compound, in the experiment with Recombinant NLRP3, the “direct interaction with NLRP3” value is given as “directly interacts proximal to the Walker B motif within the NACHT domain”. The “expression levels of IL1B, IL6, IL23A, IL17A versus control specimens” value in experiment [3] is recorded as “lower expression levels”. The “NLRP3 (Nigericin, MSU, Silica)-induced inflammasome activation” value at NLRP3 inflammasome [4] is reported as “dose-dependently inhibited”. Besides, the “potency versus control probenecid compounds (IL-1β secretion)” value at NLRP3 inflammasome [5] is recorded as “more potent than the control probenecid compounds”.
